The record followed here is patent US20240043404A1 (AbbVie Inc., priority 2009, published 2024).

Molecules are shown by their SMILES.

The subject of this assay is RS4;11 cells. The assay can be described thus: RS4;11 cell viability assay (CellTiter Glo).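 Also: acute lymphoblastic leukemia line RS4,11, EC50 derived from percentage of viable cells after treatment relative to untreated controls, cell killing taken as a measure of Bcl-2 inhibition.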 The following applies: Homo sapiens, RS4-11, 48 h, 50,000 cells per well, 10% human serum, 48 hours; read-out: RS4; 11 EC50 Values. It counts as cell-based, human.
Method: The acute lymphoblastic leukemia (ALL) cell line RS4;11 was used as the primary human cell line to assess the cellular activity of Bcl-2 selective agents in vitro and their efficacy in vivo.
Cell cytotoxicity EC50 values were assessed using CellTiter Glo (Promega) according to the manufacturer's recommendations. The EC50 values were determined as a percentage of viable cells following treatment compared to the untreated control cells.
Regarding `CC1(C)CCC(CN2CCN(c3ccc(C(=O)NS(=O)(=O)c4ccc(NCC5CCOC5)c([N+](=O)[O-])c4)c(Oc4cnc5[nH]ccc5c4)c3)CC2)=C(c2ccc(Cl)cc2)C1` (stereo not drawn) [Example 114, 4-(4-{[2-(4-chlorophenyl)-4,4-dimethylcyclohex-1-en-1-yl]methyl}piperazin-1-yl)-N-({3-nitro-4-[(tetrahydrofuran-3-ylmethyl)amino]phenyl}sulfonyl)-2-(1H-pyrrolo[2,3-b]pyridin-5-yloxy)benzamide], the EC50 amounted to 10.8 nM. For `CC1(C)CCC(CN2CCN(c3ccc(C(=O)NS(=O)(=O)c4ccc(NC5CN(C6CCOCC6)C5)c([N+](=O)[O-])c4)c(Oc4cnc5[nH]ccc5c4)c3)CC2)=C(c2ccc(Cl)cc2)C1` [Example 116, 4-(4-{[2-(4-chlorophenyl)-4,4-dimethylcyclohex-1-en-1-yl]methyl}piperazin-1-yl)-N-({3-nitro-4-[(1-tetrahydro-2H-pyran-4-ylazetidin-3-yl)amino]phenyl}sulfonyl)-2-(1H-pyrrolo[2,3-b]pyridin-5-yloxy)benzamide] the value was 28.5 nM; for `CC1(C)CCC(CN2CCN(c3ccc(C(=O)NS(=O)(=O)c4ccc(NC5CN(C6CCOC6)C5)c([N+](=O)[O-])c4)c(Oc4cnc5[nH]ccc5c4)c3)CC2)=C(c2ccc(Cl)cc2)C1` (stereo not drawn) [Example 117, 4-(4-{[2-(4-chlorophenyl)-4,4-dimethylcyclohex-1-en-1-yl]methyl}piperazin-1-yl)-N-({3-nitro-4-[(1-tetrahydrofuran-3-ylazetidin-3-yl)amino]phenyl}sulfonyl)-2-(1H-pyrrolo[2,3-b]pyridin-5-yloxy)benzamide], 18.2 nM; for `CC1(C)CCC(CN2CCN(c3ccc(C(=O)NS(=O)(=O)c4ccc(NC[C@H]5CCN(C6CCOCC6)C5)c([N+](=O)[O-])c4)c(Oc4cnc5[nH]ccc5c4)c3)CC2)=C(c2ccc(Cl)cc2)C1` [Example 118, 4-(4-{[2-(4-chlorophenyl)-4,4-dimethylcyclohex-1-en-1-yl]methyl}piperazin-1-yl)-N-{[3-nitro-4-({[(3R)-1-tetrahydro-2H-pyran-4-ylpyrrolidin-3-yl]methyl}amino)phenyl]sulfonyl}-2-(1H-pyrrolo[2,3-b]pyridin-5-yloxy)benzamide], 12.9 nM. For the compound `CC1(C)CCC(c2ccc(Cl)cc2)=C(CN2CCN(c3ccc(C(=O)NS(=O)(=O)c4ccc(OCC5(F)CCOCC5)c([N+](=O)[O-])c4)c(Oc4cnc5[nH]ccc5c4)c3)CC2)C1` [Example 119, 4-(4-{[2-(4-chlorophenyl)-5,5-dimethylcyclohex-1-en-1-yl]methyl}piperazin-1-yl)-N-({4-[(4-fluorotetrahydro-2H-pyran-4-yl)methoxy]-3-nitrophenyl}sulfonyl)-2-(1H-pyrrolo[2,3-b]pyridin-5-yloxy)benzamide], the EC50 amounted to 11.4 nM. In the case of `CO[C@H]1CC[C@@H](COc2ccc(S(=O)(=O)NC(=O)c3ccc(N4CCN(CC5=C(c6ccc(Cl)cc6)CC(C)(C)CC5)CC4)cc3Oc3cnc4[nH]ccc4c3)cc2[N+](=O)[O-])CC1` [Example 121, 2-(1H-pyrrolo[2,3-b]pyridin-5-yloxy)-4-(4-((2-(4-chlorophenyl)-4,4-dimethylcyclohex-1-enyl)methyl)piperazin-1-yl)-N-(4-((cis-4-methoxycyclohexyl)methoxy)-3-nitrophenylsulfonyl)benzamide], the EC50 is 59.7 nM. The result for `CC1(C)CCC(CN2CCN(c3ccc(C(=O)NS(=O)(=O)c4ccc(N[C@H]5CC[C@@H](NC6CC6)CC5)c([N+](=O)[O-])c4)c(Oc4cnc5[nH]ccc5c4)c3)CC2)=C(c2ccc(Cl)cc2)C1` [Example 122, Cis-4-(4-{[2-(4-chlorophenyl)-4,4-dimethylcyclohex-1-en-1-yl]methyl}piperazin-1-yl)-N-[(4-{[4-(cyclopropylamino)cyclohexyl]amino}-3-nitrophenyl)sulfonyl]-2-(1H-pyrrolo[2,3-b]pyridin-5-yloxy)benzamide] reads 1.85 nM; that for `CC1(C)CCC(CN2CCN(c3ccc(C(=O)NS(=O)(=O)c4ccc(N[C@H]5CC[C@H](NC6CCOCC6)CC5)c([N+](=O)[O-])c4)c(Oc4cnc5[nH]ccc5c4)c3)CC2)=C(c2ccc(Cl)cc2)C1` [Example 123, Trans-4-(4-{[2-(4-chlorophenyl)-4,4-dimethylcyclohex-1-en-1-yl]methyl}piperazin-1-yl)-N-[(3-nitro-4-{[4-(tetrahydro-2H-pyran-4-ylamino)cyclohexyl]amino}phenyl)sulfonyl]-2-(1H-pyrrolo[2,3-b]pyridin-5-yloxy)benzamide], 3.33 nM; that for `CC1(C)CCC(CN2CCN(c3ccc(C(=O)NS(=O)(=O)c4cnc(O[C@H]5CC[C@H](N6CCOCC6)CC5)c(Br)c4)c(Oc4cnc5[nH]ccc5c4)c3)CC2)=C(c2ccc(Cl)cc2)C1` [Example 124, Trans-N-({5-bromo-6-[(4-morpholin-4-ylcyclohexyl)oxy]pyridin-3-yl}sulfonyl)-4-(4-{[2-(4-chlorophenyl)-4,4-dimethylcyclohex-1-en-1-yl]methyl}piperazin-1-yl)-2-(1H-pyrrolo[2,3-b]pyridin-5-yloxy)benzamide], 212 nM. The result for `CO[C@H]1CC[C@H](COc2ccc(S(=O)(=O)NC(=O)c3ccc(N4CCN(CC5=C(c6ccc(Cl)cc6)CC(C)(C)CC5)CC4)cc3Oc3cnc4[nH]ccc4c3)cc2[N+](=O)[O-])CC1` [Example 125, Trans-4-(4-{[2-(4-chlorophenyl)-4,4-dimethylcyclohex-1-en-1-yl]methyl}piperazin-1-yl)-N-({4-[(4-methoxycyclohexyl)methoxy]-3-nitrophenyl}sulfonyl)-2-(1H-pyrrolo[2,3-b]pyridin-5-yloxy)benzamide] reads 8.38 nM; that for `CC1(C)CCC(CN2CCN(c3ccc(C(=O)NS(=O)(=O)c4ccc(OCC5(F)CCN(C(=O)OC(C)(C)C)CC5)c([N+](=O)[O-])c4)c(Oc4cnc5[nH]ccc5c4)c3)CC2)=C(c2ccc(Cl)cc2)C1` [Example 126, tert-butyl 4-{[4-({[4-(4-{[2-(4-chlorophenyl)-4,4-dimethylcyclohex-1-en-1-yl]methyl}piperazin-1-yl)-2-(1H-pyrrolo[2,3-b]pyridin-5-yloxy)benzoyl]amino}sulfonyl)-2-nitrophenoxy]methyl}-4-fluoropiperidine-1-carboxylate], 53.6 nM.

As to `CC1(C)CCC(CN2CCN(c3ccc(C(=O)NS(=O)(=O)c4ccc(OCC5(F)CCNCC5)c([N+](=O)[O-])c4)c(Oc4cnc5[nH]ccc5c4)c3)CC2)=C(c2ccc(Cl)cc2)C1` [Example 127, 4-(4-{[2-(4-chlorophenyl)-4,4-dimethylcyclohex-1-en-1-yl]methyl}piperazin-1-yl)-N-({4-[(4-fluoropiperidin-4-yl)methoxy]-3-nitrophenyl}sulfonyl)-2-(1H-pyrrolo[2,3-b]pyridin-5-yloxy)benzamide], the EC50 is 9.75 nM. The result for `CC1(C)CCC(CN2CCN(c3ccc(C(=O)NS(=O)(=O)c4ccc(N[C@H]5CC[C@H](N6CCN(C7CCOCC7)CC6)CC5)c([N+](=O)[O-])c4)c(Oc4cnc5[nH]ccc5c4)c3)CC2)=C(c2ccc(Cl)cc2)C1` [Example 128, Trans-4-(4-{[2-(4-chlorophenyl)-4,4-dimethylcyclohex-1-en-1-yl]methyl}piperazin-1-yl)-N-[(3-nitro-4-{[4-(4-tetrahydro-2H-pyran-4-ylpiperazin-1-yl)cyclohexyl]amino}phenyl)sulfonyl]-2-(1H-pyrrolo[2,3-b]pyridin-5-yloxy)benzamide] reads 5.89 nM; that for `CC1(C)CCC(CN2CCN(c3ccc(C(=O)NS(=O)(=O)c4ccc(OCC5CCN(C(CF)CF)CC5)c([N+](=O)[O-])c4)c(Oc4cnc5[nH]ccc5c4)c3)CC2)=C(c2ccc(Cl)cc2)C1` [Example 129, 4-(4-{[2-(4-chlorophenyl)-4,4-dimethylcyclohex-1-en-1-yl]methyl}piperazin-1-yl)-N-{[4-({1-[2-fluoro-1-(fluoromethyl)ethyl]piperidin-4-yl}methoxy)-3-nitrophenyl]sulfonyl}-2-(1H-pyrrolo[2,3-b]pyridin-5-yloxy)benzamide], 14.8 nM; that for `CC1(C)CCC(CN2CCN(c3ccc(C(=O)NS(=O)(=O)c4ccc(N[C@@H]5CCN(C6CCOCC6)C5)c([N+](=O)[O-])c4)c(Oc4cnc5[nH]ccc5c4)c3)CC2)=C(c2ccc(Cl)cc2)C1` [Example 130, 4-(4-{[2-(4-chlorophenyl)-4,4-dimethylcyclohex-1-en-1-yl]methyl}piperazin-1-yl)-N-[(3-nitro-4-{[(3R)-1-tetrahydro-2H-pyran-4-ylpyrrolidin-3-yl]amino}phenyl)sulfonyl]-2-(1H-pyrrolo[2,3-b]pyridin-5-yloxy)benzamide], 10.6 nM.

As for `CC1(C)CCC(CN2CCN(c3ccc(C(=O)NS(=O)(=O)c4ccc(N[C@@H]5CCN(C6CCOC(C)(C)C6)C5)c([N+](=O)[O-])c4)c(Oc4cnc5[nH]ccc5c4)c3)CC2)=C(c2ccc(Cl)cc2)C1` (stereo partly drawn) [Example 131, 4-(4-{[2-(4-chlorophenyl)-4,4-dimethylcyclohex-1-en-1-yl]methyl}piperazin-1-yl)-N-[(4-{[(3R)-1-(2,2-dimethyltetrahydro-2H-pyran-4-yl)pyrrolidin-3-yl]amino}-3-nitrophenyl)sulfonyl]-2-(1H-pyrrolo[2,3-b]pyridin-5-yloxy)benzamide], the EC50 was found to be 12.7 nM. The result for `CC1(C)CCC(CN2CCN(c3ccc(C(=O)NS(=O)(=O)c4ccc(N[C@H]5CCN(C6CCOCC6)C5)c([N+](=O)[O-])c4)c(Oc4cnc5[nH]ccc5c4)c3)CC2)=C(c2ccc(Cl)cc2)C1` [Example 132, 4-(4-{[2-(4-chlorophenyl)-4,4-dimethylcyclohex-1-en-1-yl]methyl}piperazin-1-yl)-N-[(3-nitro-4-{[(3S)-1-tetrahydro-2H-pyran-4-ylpyrrolidin-3-yl]amino}phenyl)sulfonyl]-2-(1H-pyrrolo[2,3-b]pyridin-5-yloxy)benzamide] reads 22.1 nM; that for `CC1(C)CCC(CN2CCN(c3ccc(C(=O)NS(=O)(=O)c4ccc(N[C@H]5CCN(C6CCOC(C)(C)C6)C5)c([N+](=O)[O-])c4)c(Oc4cnc5[nH]ccc5c4)c3)CC2)=C(c2ccc(Cl)cc2)C1` (stereo partly drawn) [Example 133, 4-(4-{[2-(4-chlorophenyl)-4,4-dimethylcyclohex-1-en-1-yl]methyl}piperazin-1-yl)-N-[(4-{[(3S)-1-(2,2-dimethyltetrahydro-2H-pyran-4-yl)pyrrolidin-3-yl]amino}-3-nitrophenyl)sulfonyl]-2-(1H-pyrrolo[2,3-b]pyridin-5-yloxy)benzamide], 31.9 nM.
